Laboratory results: patent publication US8273777B2, “Glucokinase activators and methods of using same” (Bristol-Meyer Squibb Company, priority 2007, dated 2012)

biological target: T1, human glucokinase (GK) (Homo sapiens, UniProt P35557); test: Glucokinase tandem enzymatic assay; type: biochemical; conditions: 12 mM glucose; EC50 = concentration to achieve 50% of full activation
T1 construct: Full-length human hepatic GK (untagged) was expressed in BL21 STAR (DE3)pLysS cells; made in house; host or cells: E. coli BL21 STAR (DE3)pLysS (Invitrogen)
T1 sequence (P35557 1-466 isoform P35557-2): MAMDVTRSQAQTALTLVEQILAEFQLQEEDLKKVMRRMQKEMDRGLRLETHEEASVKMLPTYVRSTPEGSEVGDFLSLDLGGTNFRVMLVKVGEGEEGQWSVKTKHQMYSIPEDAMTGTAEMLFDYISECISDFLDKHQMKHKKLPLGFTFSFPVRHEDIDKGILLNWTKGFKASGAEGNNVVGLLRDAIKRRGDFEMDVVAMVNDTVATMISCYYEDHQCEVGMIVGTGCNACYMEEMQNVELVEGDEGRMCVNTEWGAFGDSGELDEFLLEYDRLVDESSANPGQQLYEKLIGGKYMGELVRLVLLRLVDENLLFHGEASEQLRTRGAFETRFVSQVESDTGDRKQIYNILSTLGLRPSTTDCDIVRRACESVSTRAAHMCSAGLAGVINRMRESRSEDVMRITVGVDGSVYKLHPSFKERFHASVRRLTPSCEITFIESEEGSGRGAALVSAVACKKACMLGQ
Experimental: Glucokinase Tandem Enzymatic Assay
Enzymatic activity of human glucokinase (GK) was measured by incubating GK, ATP, and glucose for discrete time periods followed by quenching with EDTA (ethylenediamine tetra-acetic acid). Relative amounts of product glucose-6-phosphate (G6P) were measured by then running a detection assay using G6P dehydrogenase and measuring the conversion of ThioNAD (thio-nicotinamide adenine dinucleotide) to ThioNADH (thio-dihydronicotinamide adenine dinucleotide) at a wavelength of 405 nm. This ‘uncoupled’ enzymatic reaction is denoted as the GK ‘tandem’ assay. Activation of GK by compounds can be assessed using this assay. The GK tandem assay protocol described below was followed using a range of activator compound concentrations from 0 to 100 μM at 5 and 12 mM of glucose. Human full-length glucokinase (GK, 15 nM) was incubated with 5 or 12 mM glucose in a 384 well black microtiter plate with a clear bottom. To initiate the GK reaction, magnesium-ATP (3 mM final concentration) was added to GK in buffer (final buffer conditions of 25 mM HEPES buffer, pH 7.1, containing 1 mM dithiothreitol and 5% DMSO). The total reaction volume was 20 μL The reaction was allowed to proceed for ten minutes and was then quenched with 5 μL EDTA; 45 mM final). The components of the detection reaction, ThioNAD and G6PDH (glucose-6-phosphate dehydrogenase) (final concentrations of 650 μM and 3.33 Units, respectively), were then added together in a volume of 25 μL (to give a total volume of 50 μL). Absorbance measurements were made at 405 nm on a Spectramax Plus 384 absorbance plate reader (Molecular Devices). Absorbance was read, background glucose-6-phosphate levels were subtracted, after which activation was calculated as a percentage of control activity. Control activity was determined using GK in the presence of vehicle (DMSO), with background glucose-6-phosphate subtracted. Background glucose-6-phosphate was determined by pre-quenching GK with EDTA prior to reaction initiation with ATP.
Expression and Purification of Human GK
Full-length human hepatic GK (untagged) was expressed in BL21 STAR (DE3)pLysS cells (Invitrogen) at 25° C. as described by Mookhtiar et al. (1). The protein was purified essentially as described by Lange (2) with a slight modification. Briefly, cell pellets were lysed via three rounds of freezing and thawing, centrifuged at 15000 g for clarification, and precipitated with 40-65% (NH4)2SO4. The resulting pellet was resuspended in buffer, dialyzed, and applied directly to a Q-Sepharose (Sigma) column followed by elution with a linear 100-600 mM KCl gradient. GK containing fractions were pooled, dialyzed overnight vs. 25 mM Hepes pH 7.2/1 mM MgCl2/1 mM EDTA/0.1 M KCl/1 mM DTT, then dialyzed again with same buffer with 10% glycerol added.

Row | EC50 | SMILES
1 | 165 nM | COC[C@H](C)Oc1cc(NC(=O)c2nc3ccccc3s2)cc(Oc2ccc(S(C)(=O)=O)cc2)c1 [Example 5]
2 | 77 nM | Cc1cnc(C(=O)Nc2cc(Oc3ccc(S(C)(=O)=O)cc3)cc(O[C@@H](C)CO)c2)s1 [Example 22]
3 | 67 nM | COC[C@H](C)Oc1cc(NC(=O)c2ncc(C)s2)cc(Oc2ccc(S(C)(=O)=O)cc2)c1 [Example 18]
4 | 191 nM | COC[C@H](C)Oc1cc(NC(=O)c2c[nH]cn2)cc(Oc2ccc(S(C)(=O)=O)cc2)c1 [Example 6]
5 | 575 nM | CS(=O)(=O)c1ccc(Oc2cc(NC(=O)c3c[nH]cn3)cc(Oc3ccc(S(C)(=O)=O)cc3)c2)cc1 [Example 31]
6 | 513 nM | COC[C@H](C)Oc1cc(NC(=O)c2cc[nH]n2)cc(Oc2ccc(S(C)(=O)=O)cc2)c1 [Example 8]

same assay, conditions: 12 mM glucose; expressed as % of basal activation; EC50 could not be calculated; read-out: Maximal activation (%) Human Glucokinase @ 12 mM Glucose

Row | Emax | SMILES
7 | 131% | COC[C@H](C)Oc1cc(NC(=O)c2ncn[nH]2)cc(Oc2ccc(S(C)(=O)=O)cc2)c1 [Example 7]
8 | 163% | CS(=O)(=O)c1ccc(Oc2cc(NC(=O)c3nccs3)cc(C(F)(F)F)c2)cc1 [Example 37]

system: male DIO (diet-induced obese) C57BL/6J mice; test: Oral glucose tolerance test (OGTT) in DIO mice; type: in vivo; conditions: 30 mg/kg dose, given orally 60 min before glucose 2 g/kg, ΔAUC 0-120 min
Experimental: In Vivo Studies: Oral Glucose Tolerance Test (OGTT)
Oral glucose tolerance tests were carried out on male DIO (diet-induced obese) C57BL/6J mice fed a high fat diet (60% kcal from fat) for 26 weeks prior to experimentation. Mice were fasted overnight before use for experiments. A test compound or vehicle (10% dimethyl acetamide +10% ethanol +10% Cremophore +70% water) was given orally 60 min before oral administration of a glucose solution at a dose of 2 g/kg body weight (oral glucose tolerance test; OGTT). Blood glucose levels were measured from tail-bled samples taken at different time points before and after administration of glucose (time course of 2 hours). A time curve of the blood glucose was generated and the change from baseline area-under-the curve (ΔAUC) from 0-120 min was calculated (the time glucose administration being time zero).

Row | SMILES | reduction of glucose AUC levels in OGTT
9 | COC[C@H](C)Oc1cc(NC(=O)c2c[nH]cn2)cc(Oc2ccc(S(C)(=O)=O)cc2)c1 [Example 6] | 66%
